Molecules are shown by their SMILES.

Test in all cases: Glasshouse herbicide test, pre- and post-emergence
Assay type in all cases: in vivo

One assay concerns Setaria faberi (SETFA). The settings on record: 250 g/h, evaluated after 13 days, five-point scale; for percentage damage caused to the plant, SETFA POST: post-emergence; for percentage damage caused to the plant, SETFA PRE: pre-emergence. Put shortly:
(§1)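 Pots were sprayed 1 day (pre-emergence) or 8 days (post-emergence) after sowing at 250 g/h, formulated in acetone/water 50:50 with 0.5% Tween 20. Plants were grown in a glasshouse at 24/16 °C day/night, 14 h light and 65% humidity, then damage was scored after 13 days on a five-point scale (5=80-100% … 1=0-19%).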

The subject of another assay is Lolium perenne (LOLPE). The settings on record: 250 g/h, evaluated after 13 days, five-point scale; for percentage damage caused to the plant, LOLPE POST: post-emergence; for percentage damage caused to the plant, LOLPE PRE: pre-emergence. Summed up:
as §1

For assay [1], the system named is Echinochloa crus-galli (ECHCG). Particulars: 250 g/h, evaluated after 13 days, five-point scale; for percentage damage caused to the plant, ECHCG POST: post-emergence; for percentage damage caused to the plant, ECHCG PRE: pre-emergence. Summed up:
as §1

Assay [2] has as its system Alopecurus myosuroides (ALOMY). Particulars: 250 g/h, evaluated after 13 days, five-point scale; for percentage damage caused to the plant, ALOMY POST: post-emergence; for percentage damage caused to the plant, ALOMY PRE: pre-emergence. Summed up:
as §1

Another assay deals with Avena fatua (AVEFA). The settings on record: 250 g/h, evaluated after 13 days, five-point scale; for percentage damage caused to the plant, AVEFA POST: post-emergence; for percentage damage caused to the plant, AVEFA PRE: pre-emergence. Summed up:
as §1

On to `CC#Cc1cc(C)c(C2C(=O)CC3(CC2=O)CC(NC(C)=O)C3)c(C)c1` (centres unmarked) [Compound 2.025], for which, in the assay on Setaria faberi (SETFA), the “percentage damage caused to the plant, SETFA POST” value was 5 (5=80-100%) and the “percentage damage caused to the plant, SETFA PRE” value is 5 (5=80-100%). Moreover, in the assay with Lolium perenne (LOLPE), the “percentage damage caused to the plant, LOLPE POST” value was 5 (5=80-100%) and the “percentage damage caused to the plant, LOLPE PRE” value was 5 (5=80-100%). In addition, in assay [1], the “percentage damage caused to the plant, ECHCG POST” value is 5 (5=80-100%) and the “percentage damage caused to the plant, ECHCG PRE” value is 5 (5=80-100%). For the same compound, in assay [2], the “percentage damage caused to the plant, ALOMY POST” value is recorded as 5 (5=80-100%) and the “percentage damage caused to the plant, ALOMY PRE” value was 5 (5=80-100%). Also, in the assay with Avena fatua (AVEFA), the “percentage damage caused to the plant, AVEFA POST” value is given as 5 (5=80-100%) and the “percentage damage caused to the plant, AVEFA PRE” value is given as 5 (5=80-100%).
On to `CC(=O)NC1CCC2(CC1)CC(=O)C(c1c(C)cc(-c3ccc(F)cc3)cc1C)C(=O)C2` (centres unmarked) [Compound 2.027], for which, in the assay on Setaria faberi (SETFA), the “percentage damage caused to the plant, SETFA POST” value was 5 (5=80-100%) and the “percentage damage caused to the plant, SETFA PRE” value was 5 (5=80-100%). Besides, in the assay with Lolium perenne (LOLPE), the “percentage damage caused to the plant, LOLPE POST” value is on record as 5 (5=80-100%) and the “percentage damage caused to the plant, LOLPE PRE” value is listed as 4 (4=60-79%). Also, in assay [1], the “percentage damage caused to the plant, ECHCG POST” value is recorded as 5 (5=80-100%) and the “percentage damage caused to the plant, ECHCG PRE” value was 2 (2=20-39%). Moreover, in assay [2], the “percentage damage caused to the plant, ALOMY POST” value was 5 (5=80-100%) and the “percentage damage caused to the plant, ALOMY PRE” value is on record as 3 (3=40-59%). Further, in the assay on Avena fatua (AVEFA), the “percentage damage caused to the plant, AVEFA POST” value is given as 5 (5=80-100%) and the “percentage damage caused to the plant, AVEFA PRE” value is given as 4 (4=60-79%).
For `CC(=O)NC1CCC2(CC1)CC(=O)C(c1c(C)cc(-c3ncc(F)cn3)cc1C)C(=O)C2` (centres unmarked) [Compound 2.028], in the assay on Setaria faberi (SETFA), the “percentage damage caused to the plant, SETFA POST” value is given as 5 (5=80-100%) and the “percentage damage caused to the plant, SETFA PRE” value is given as 5 (5=80-100%). In the assay with Lolium perenne (LOLPE), the “percentage damage caused to the plant, LOLPE POST” value is 5 (5=80-100%) and the “percentage damage caused to the plant, LOLPE PRE” value is on record as 5 (5=80-100%). Also, in assay [1], the “percentage damage caused to the plant, ECHCG POST” value is listed as 5 (5=80-100%) and the “percentage damage caused to the plant, ECHCG PRE” value is 5 (5=80-100%). In addition, in assay [2], the “percentage damage caused to the plant, ALOMY POST” value was 5 (5=80-100%) and the “percentage damage caused to the plant, ALOMY PRE” value is given as 5 (5=80-100%). In the assay with Avena fatua (AVEFA), the “percentage damage caused to the plant, AVEFA POST” value is listed as 5 (5=80-100%) and the “percentage damage caused to the plant, AVEFA PRE” value is given as 4 (4=60-79%).
On to `Cc1cc(-c2ccc(C#N)cn2)cc(C)c1C1C(=O)CC2(CCC(NC(=O)C3CC3)CC2)CC1=O` (centres unmarked) [Compound 2.029], for which, in the assay on Setaria faberi (SETFA), the “percentage damage caused to the plant, SETFA POST” value is 5 (5=80-100%) and the “percentage damage caused to the plant, SETFA PRE” value is listed as 5 (5=80-100%). Besides, in the assay with Lolium perenne (LOLPE), the “percentage damage caused to the plant, LOLPE POST” value is reported as 5 (5=80-100%) and the “percentage damage caused to the plant, LOLPE PRE” value is 5 (5=80-100%). In assay [1], the “percentage damage caused to the plant, ECHCG POST” value is 5 (5=80-100%) and the “percentage damage caused to the plant, ECHCG PRE” value is 5 (5=80-100%). In assay [2], the “percentage damage caused to the plant, ALOMY POST” value is 5 (5=80-100%) and the “percentage damage caused to the plant, ALOMY PRE” value is recorded as 2 (2=20-39%). For the same compound, in the assay with Avena fatua (AVEFA), the “percentage damage caused to the plant, AVEFA POST” value is given as 5 (5=80-100%) and the “percentage damage caused to the plant, AVEFA PRE” value is given as 4 (4=60-79%).
For `CC(=O)NC1CCC2(CC1)CC(=O)C(c1c(C)cc(-c3ccc(C#N)cn3)cc1C)C(=O)C2` (centres unmarked) [Compound 2.030], in the assay on Setaria faberi (SETFA), the “percentage damage caused to the plant, SETFA POST” value is on record as 5 (5=80-100%) and the “percentage damage caused to the plant, SETFA PRE” value is listed as 5 (5=80-100%). For the same compound, in the assay on Lolium perenne (LOLPE), the “percentage damage caused to the plant, LOLPE POST” value was 5 (5=80-100%) and the “percentage damage caused to the plant, LOLPE PRE” value is given as 5 (5=80-100%). Further, in assay [1], the “percentage damage caused to the plant, ECHCG POST” value is reported as 5 (5=80-100%) and the “percentage damage caused to the plant, ECHCG PRE” value was 5 (5=80-100%). Further, in assay [2], the “percentage damage caused to the plant, ALOMY POST” value was 5 (5=80-100%) and the “percentage damage caused to the plant, ALOMY PRE” value is listed as 4 (4=60-79%). In addition, in the assay with Avena fatua (AVEFA), the “percentage damage caused to the plant, AVEFA POST” value is given as 5 (5=80-100%) and the “percentage damage caused to the plant, AVEFA PRE” value was 5 (5=80-100%).
Regarding `CC(=O)NC1CCC2(CC1)CC(=O)C(c1c(C)cc(-c3ncc(F)cc3F)cc1C)C(=O)C2` (centres unmarked) [Compound 2.031], in the assay with Setaria faberi (SETFA), the “percentage damage caused to the plant, SETFA POST” value is 5 (5=80-100%) and the “percentage damage caused to the plant, SETFA PRE” value is 5 (5=80-100%). In addition, in the assay with Lolium perenne (LOLPE), the “percentage damage caused to the plant, LOLPE POST” value was 5 (5=80-100%) and the “percentage damage caused to the plant, LOLPE PRE” value is recorded as 5 (5=80-100%). In addition, in assay [1], the “percentage damage caused to the plant, ECHCG POST” value is 5 (5=80-100%) and the “percentage damage caused to the plant, ECHCG PRE” value is given as 5 (5=80-100%). In assay [2], the “percentage damage caused to the plant, ALOMY POST” value is 5 (5=80-100%) and the “percentage damage caused to the plant, ALOMY PRE” value is 5 (5=80-100%). Besides, in the assay with Avena fatua (AVEFA), the “percentage damage caused to the plant, AVEFA POST” value is recorded as 5 (5=80-100%) and the “percentage damage caused to the plant, AVEFA PRE” value was 5 (5=80-100%).
Take `CC(=O)NC1CCC2(CC1)CC(=O)C(c1c(C)cc(-c3ccc(F)cn3)cc1C)C(=O)C2` (centres unmarked) [Compound 2.032]: in the assay with Setaria faberi (SETFA), the “percentage damage caused to the plant, SETFA POST” value was 5 (5=80-100%) and the “percentage damage caused to the plant, SETFA PRE” value is on record as 5 (5=80-100%). Further, in the assay with Lolium perenne (LOLPE), the “percentage damage caused to the plant, LOLPE POST” value was 5 (5=80-100%) and the “percentage damage caused to the plant, LOLPE PRE” value is on record as 5 (5=80-100%). In assay [1], the “percentage damage caused to the plant, ECHCG POST” value is on record as 5 (5=80-100%) and the “percentage damage caused to the plant, ECHCG PRE” value is 5 (5=80-100%). Also, in assay [2], the “percentage damage caused to the plant, ALOMY POST” value was 5 (5=80-100%) and the “percentage damage caused to the plant, ALOMY PRE” value is 5 (5=80-100%). Besides, in the assay on Avena fatua (AVEFA), the “percentage damage caused to the plant, AVEFA POST” value is recorded as 5 (5=80-100%) and the “percentage damage caused to the plant, AVEFA PRE” value was 4 (4=60-79%).
In the case of `CC#Cc1cc(C)c(C2=C(OC(=O)OC)CC3(CCC(C(=O)NC)CC3)CC2=O)c(C)c1` (centres unmarked) [Compound P1.001], in the assay on Setaria faberi (SETFA), the “percentage damage caused to the plant, SETFA POST” value is reported as 5 (5=80-100%) and the “percentage damage caused to the plant, SETFA PRE” value is recorded as 5 (5=80-100%). In the assay with Lolium perenne (LOLPE), the “percentage damage caused to the plant, LOLPE POST” value was 5 (5=80-100%) and the “percentage damage caused to the plant, LOLPE PRE” value was 5 (5=80-100%). In assay [1], the “percentage damage caused to the plant, ECHCG POST” value is recorded as 5 (5=80-100%) and the “percentage damage caused to the plant, ECHCG PRE” value is 5 (5=80-100%). In assay [2], the “percentage damage caused to the plant, ALOMY POST” value is given as 5 (5=80-100%) and the “percentage damage caused to the plant, ALOMY PRE” value is reported as 5 (5=80-100%). Moreover, in the assay with Avena fatua (AVEFA), the “percentage damage caused to the plant, AVEFA POST” value was 5 (5=80-100%) and the “percentage damage caused to the plant, AVEFA PRE” value was 5 (5=80-100%).

(Values after patent US12319640B2, “Cyclic diones as herbicidal compounds” (SYNGENTA CROP PROTECTION AG, priority 2019, dated 2025).)
